Data from patent publication US20100266503A1, “Breast Cancer Methods, Medicaments and Agents” (priority 2007, published 2010).
Non-standard residues stand in square brackets, D forms with d. Residues, ends and D or L forms follow the SMILES beside them. *: point of attachment. Nle = CCCC[C@H](N)C(=O)O; Cbz = O=C(OCc1ccccc1)*

Experiments:
Type in all cases: cell-based
[1] = system: CD44 in ZR75-1 and MCF10A cells; experiment: CD44 immunofluorescence staining after GSI1; conditions: GSI1 750 nM
Excerpt: Stained sections of the breast cancer cell line ZR75-1 (A-D) and the normal cell line (E-H) showing effect of GSI1 on CD44 concentration. Upper sections (A, B, E and F) show cells treated with GSI1. Lower sections (C, D, G and H) show untreated cells. Sections were stained with an anti CD44 primary antibody and a fluorescently labeled secondary antibody to detect CD44. Nuclei were counterstained with DAPI, as shown in panels A, C, E and G.
In order to understand the mechanism of how GS inhibition by GSI1 leads to cell death, we investigated the effect of GS inhibition on CD44 expression which is a substrate for GS and is a cell adhesion molecule. […] The effect of GSI1 on CD44 expression was investigated in one cancer, ZR75-1, and one normal, MCF10A, cell line±GSI1 (at 750 nM i.e. inhibitory dose) (FIG. 9). We used an anti CD44 primary antibody and a fluorescently labelled secondary antibody to detect the CD44. Specifically, the CD44 antibody was a FITC conjugated antibody (BD Biosciences) that was used at a 1:40 dilution. The antibody was incubated for 60 mins at room temperature after fixing in formalin. Nuclei were counterstained with DAPI. […] Thus the inhibitor was not causing the cells to become detached from the plates and die.

[2] = system: MDA-MB-231, T47D and MCF-7 cells; experiment: Annexin V staining / full cell cycle analysis by FACS after GSI1
Method: (§1) We next did Annexin V staining which is a marker of apoptosis. Cells were treated with GSI1 for 0, 7, 24 and 48 hours. After trypsinizing, the cells were washed with PBS 5 times and then treated with RNAase (100 μg/ml) for 20 mins then propidium iodide was added at 50 μg/ml per 1×10^7 cells, and incubated overnight at 4° C. The samples were then filtered through a 70 μm mesh and run on a FACS with the following settings: Forward scatter 113, side scatter 356 and PE setting 380. Although there was an increase in staining indicating apoptosis, this was only approximately 10%. For example, in MDA-MB-231 cells there was a 5% increase in Annexin V staining after 7 hours of treatment and in T47D and MCF-7 cells there was an 8% increase in Annexin V staining. We have repeated these experiments with full cell cycle analysis at 7, 24 and 48 h post treatment and again detect apoptosis but […]. […] Nevertheless it is likely that cell proliferation is inhibited via another mechanism as opposed to the induction of cellular death.

[3] = system: MDA-MB-231 cells; experiment: Annexin V staining after GSI1; conditions: after 7 hours of treatment
Method: as §1

[4] = system: T47D cells; experiment: Annexin V staining after GSI1
Method: as §1

[5] = system: MCF-7 cells; experiment: Annexin V staining after GSI1
Method: as §1

[6] = system: MCF-7, T47D, ZR-75-1, MDA-MB-231 and Cal-51 breast cancer cell lines; experiment: Sulphorhodamine B Assay (SRB) of GSI1 on breast cancer cell lines
Excerpt: Graphs illustrating the effects of GSI1, at different concentrations, on proliferation in five breast cancer cell lines: (A) MCF-7 cells, (B) T47D cells, (C) ZR-75-1 cells, (D) MDA-MB-231 cells and (E) Cal- 51 cells.
The effect of GSI1 on cell proliferation was investigated further in a range of breast cancer cell lines, including both oestrogen receptor positive and negative cell lines, using the Sulphorhodamine B Assay (SRB) to measure cell numbers as illustrated in FIG. 7. […] 6,000 cells were plated in 6 replicates and allowed to adhere overnight. The media was replaced the following day with media containing GSI1 at different concentrations (100 nM, 250 nM, 500 nM, 750 nM, 1 μM, 2 μM, 5 μM, and 10 μM) apart from the control which was media+dimethyl sulphoxide (the solvent for GSI1 at a concentration equal to the highest in the GSI1 treated wells). One plate of cells was subjected to the Sulphorhodamine B Assay (SRB), which […] is an accepted measure of cell numbers, on this day, day 0. Briefly, cells were fixed by adding 100 μl/well of ice-cold 40% Trichloroacetic acid to each well and leaving for 60 mins. Plates were washed 5 times in running tap water (allowing water to fill wells indirectly) and stained with 100 μl/well SRB reagent (0.4% w/v SRB [Sigma-s-9012] in 1% Acetic acid) for 30 mins. Plates were washed 5 times in 1% acetic acid and left overnight to dry before solubilizing with 100 μl/well 10 mM Tris-base. Plates were subject to shaking for 30 mins and absorbance read at 492 nm. The remaining plates were then assayed at 2-day intervals up to day 10. […] Thus, it was evident that irrespective of the cell characteristics that 1 μM and higher concentrations were an effective killing dose and doses as low as 250 nM were inhibitory to cell proliferation.

[7] = system: notch intracellular domain in MCF-7 cells; experiment: Staining for notch intracellular domain expression (surrogate marker for GS activity); conditions: 48 hours; Gefitinib 15 μM, U0126 10 μM, PD98059 10 μM
Excerpt: (A) GS activity as measured by a fluorescent assay in MCF7 breast cancer cell lines and MCF10A normal cell lines, with and without treatment with the ERK1/2 inhibitor U0126. (B) Sections of MCF7 breast cancer cell lines stained for notch intracellular domain expression (as a surrogate marker for GS activity). Shown are sections of cells untreated (NO), and cells treated with oestrogen (E2), faslodex (FAS), Gefitinib (Gef), GSI1, and the ERK1/2 inhibitors U0126 (U) and. PD98059 (PD). (C) Sections of MCF10A normal cell lines stained for notch intracellular domain expression. Shown are sections of cells untreated (NO), and cells treated with Gefitinib (Gef) and PD98059 (PD).
Cancer and normal cell lines were treated with oestrogen (E2), faslodex (FAS), Gefitinib (Gef 15 μM), GSI1, and the ERK1/2 inhibitors U0126 (U) (10 μM) and PD98059 (PD) (10 μM) for 48 hours and a fluorescent assay performed to measure GS activity. The figures show relative fluorescence therefore the amount of fluorescence in the treated cells relative to the untreated minus background (these figures are corrected for background).

CCCC[C@@H](C=O)NC(=O)[C@H](CC(C)C)NC(=O)[C@H](CC(C)C)NC(=O)OCc1ccccc1 [GSI1, Z-Leu-Leu-Nle-CHO] (Cbz-Leu-Leu-[Nle]-aldehyde)
CD44 expression [1]: up-regulation of CD44
apoptosis level in full cell cycle analysis ([2]; 7, 24 and 48 h post treatment, higher concentration of GSI): > 25%
cell cycle status ([2]; higher concentration of GSI): majority of cells were in G2/M Cell cycle arrest
increase in Annexin V staining indicating apoptosis ([2]; treated 0, 7, 24 and 48 hours): approximately 10%
increase in Annexin V staining [3]: 5%
increase in Annexin V staining [4]: 8%
increase in Annexin V staining [5]: 8%
effect of the 1 μM treatment on cell numbers ([6]; 1 μM, each cell line, assayed up to day 10): greatly reduced cell numbers
effective killing dose ([6]; irrespective of cell characteristics, up to day 10): ≥ 1 µM
concentration effective at killing / lethal to breast cancer cell lines ([6]; summary statement): 1 µM
lowest dose inhibitory to cell proliferation ([6]; up to day 10): 250 nM
notch intracellular domain expression localized to the nucleus compared to untreated cells [7]: appear to increase notch intracellular domain expression localized to the nucleus
